Patent publication US11272706B2, “Anti-resistance method” (UPL LIMITED, priority 2017, dated 2022)
Converted amounts (≈) assume the structure as drawn. Like-named read-outs stand apart in the source and are kept apart here.

Assays:
Drechsiera siccans = assay: 50% inhibition of mycelium growth (IC50), five isolates, DMI fungicides; format: cell-based
Method: In the 2003 wheat crop for the first time, there was complaint of leaf spot control failure after continuous use of fungicides DMI+QoI, for 20 years. Until that time there were few reports of the sensitivity of the fungus that is causal agent of yellow spot to fungicides (Stoke, 2006; Tonin, 2009; Beard et al, 2009; Patel et al, 2012). The reference concentrations of sensitivity of Dtr to fungicides found in the literature were 0.17 mg/L in average for the epoxiconazole, propiconazole and tebuconazole. […] Comparing these values with the sensitivity of isolates of Brazil proves the reduced sensitivity occurring here (see Table 3).
Average of two experiments.

soybean rust [1] = system: soybean rust; design: Control of soybean rust, crop 2005/06 / Control of soybean rust, crop 2012/13: concentration or dose not given beside the values; conditions: cited from earlier work; for Reduction (%) of control: 2005/06 versus 2012/13 crop; for Control of soybean rust, crop 2005/06 / Control of soybean rust, crop 2012/13: applied preventively; for Control of soybean rust, crop 2005/06: 2005/06 crop; for Control of soybean rust, crop 2012/13: 2012/13 crop
soybean rust [2] = conditions: crop 2010/11, cited from earlier work; for Control (%): evaluated by AUDPC; for Severity (%): untreated control 74.0
[3] = system: Drechsiera tritici-repentis; assay: 50% inhibition of spore germination (CI50), five isolates, strobilurin fungicides; format: cell-based; conditions: for Reduction factor of the sensitivity, isolate 01/QTZ: CI50 of sensitivity reference 0.75 mg/L; for Reduction factor of the sensitivity, Average / Reduction factor of the sensitivity, isolate 02/ONX / Reduction factor of the sensitivity, isolate 03/HZT / Reduction factor of the sensitivity, isolate 04/GUA / Reduction factor of the sensitivity, isolate 05/CD: reference 0.75 mg/L
Method: However, the highest reduction of sensitivity of the Dtr to fungicides and what better explains the control failure claimed by producers is the CI50 obtained for QoIs fungicides (see Table 4).
Lowercase compare average in the column and capital letters in the line. Average of two experiments.
Taking as Cl50 standard of sensitivity, 0.75 mg/L (Table 4) obtained for pyraclostrobin, it is calculated the reduction factor of the sensitivity of the Dtr to QoIs fungicides (see Table 5).
Cl50 of sensitivity reference of 0.75 mg/L.
When the SRF is close to 1.0 there is no reduction of sensitivity. However, if >1 with different magnitude, it indicates reduced sensitivity of fungi to fungicides. In this case SRF ranged from 1.04 to >53 (see Table 5).

soybean rust [4] = assay: Cooperative tests of fungicides (Embrapa Soybean): soybean rust control over crops, FIGS. 1-6; format: in vivo, Phakopsora pachyrhizi; conditions: from regression equation over crops; starting crop differs per fungicide
From the text: An example that reinforces the reported fact is the gradual reduction of tebuconazole control over the crops using it covering the period beginning in 2004/05 to 2013/14 (as FIG. 1).
The results of cooperative tests of fungicides, coordinated by Embrapa Soybean, Londrina, can bring the answer to these questions. The following graphs of FIGS. 2, 3, 4 and 5 show the reduction of rust control by fungicide mixtures traditionally used in soybeans over the past crops.
FIG. 1. Reduced soybean rust control by tebuconazole over […]. (Source: Cooperative tests of fungicides).
FIG. 2. Control Reduction of soybean rust by cyproconazole+azoxystrobin mixture over six crops. (Source: Cooperative tests of fungicides).
FIG. 3. Control Reduction of soybean rust by cyproconazole+picoxystrobin mixture over six crops. (Source: Cooperative tests of fungicides).
FIG. 4. Reduction control of soybean rust by epoxiconazole+pyraclostrobin mixture over six crops. (Source: Cooperative tests of fungicides).
FIG. 5. Average reduction of soybean rust control by mixtures of cyproconazole+azoxystrobin, cyproconazole+picoxystrobin and epoxiconazole+pyraclostrobin over six crops. (Source: Cooperative tests of fungicides).
FIG. 6. Control Reduction of soybean rust for azoxystrobin over six crops. (Source: Cooperative tests of fungicides).

soybean rust [5] = conditions: 2013/14 crop; cited from earlier work
[6] = system: Dtr (Drechsiera tritici-repentis); conditions: literature value, cited from earlier work
[7] = average of five isolates, read-out: IC50 Average
[8] = isolate 01/F30, average of two experiments, read-out: IC50 isolate 01/F30
[9] = isolate 02/RZ, read-out: IC50 isolate 02/RZ
[10] = isolate 03/SF, read-out: IC50 isolate 03/SF
[11] = isolate 04/F52, read-out: IC50 isolate 04/F52
[12] = isolate 05/VQ, read-out: IC50 isolate 05/VQ
[13] = spore germination, average of five isolates, read-out: CI50 Average
[14] = spore germination, isolate 01/QTZ, average of two experiments, read-out: CI50 isolate 01/QTZ
[15] = spore germination, isolate 02/ONX, read-out: CI50 isolate 02/ONX
[16] = spore germination, isolate 03/HZT, read-out: CI50 isolate 03/HZT
[17] = spore germination, isolate 04/GUA, read-out: CI50 isolate 04/GUA
[18] = spore germination, average of five isolates
[19] = spore germination, isolate 01/QTZ, average of two experiments
[20] = spore germination, isolate 02/ONX
[21] = spore germination, isolate 03/HZT
[22] = spore germination, isolate 04/GUA

Row | SMILES | IC50 (Drechsiera siccans; [7]) [µg/mL] | IC50 (Drechsiera siccans; [8]) [µg/mL] | IC50 (Drechsiera siccans; [9]) [µg/mL] | IC50 (Drechsiera siccans; [10]) [µg/mL] | IC50 (Drechsiera siccans; [11]) [µg/mL] | IC50 (Drechsiera siccans; [12]) [µg/mL] | Reduction (%) of control (soybean rust [1]) [%] | Control of soybean rust, crop 2005/06 (soybean rust [1]) [%] | Control of soybean rust, crop 2012/13 (soybean rust [1]) [%] | Reduction factor of the sensitivity, isolate 01/QTZ ([3]; isolate 01/QTZ) | Reduction factor of the sensitivity, Average ([3]; average of five isolates) [a] | Reduction factor of the sensitivity, isolate 02/ONX ([3]; isolate 02/ONX) | Reduction factor of the sensitivity, isolate 03/HZT ([3]; isolate 03/HZT) | Reduction factor of the sensitivity, isolate 04/GUA ([3]; isolate 04/GUA) | Reduction factor of the sensitivity, isolate 05/CD [3] | IC50 [3, 13] [µg/mL] | IC50 [3, 14] [µg/mL] | IC50 [3, 15] [µg/mL] | IC50 [3, 16] [µg/mL] | IC50 [3, 17] [µg/mL] | also measured
1 | CC(C1CC1)C(O)(Cn1cncn1)c1ccc(Cl)cc1 (stereo not drawn) [Cyproconazole] | 0.37 (≈ 1.27 µM) | 0.36 (≈ 1.23 µM) | 0.47 (≈ 1.61 µM) | 0.32 (≈ 1.1 µM) | 0.44 (≈ 1.51 µM) | 0.29 (≈ 0.994 µM) | 45.9 | 96.0 | 52.0 | – | – | – | – | – | – | – | – | – | – | – | Control (%) (soybean rust [2]): 38%; Severity (%) (soybean rust [2]): 58.1%
2 | CON=C(C(=O)OC)c1ccccc1CON=C(C)c1cccc(C(F)(F)F)c1 [Trifloxystrobin] | – | – | – | – | – | – | – | – | – | A > 53 a | >53 | A > 53 a | A > 53 a | A > 53 a | A > 53 a | > 40 | > 40 | > 40 | > 40 | > 40 | –
3 | OC(Cc1ccccc1Cl)(Cn1nc[nH]c1=S)C1(Cl)CC1 (stereo not drawn) [Prothioconazole] | 0.21 (≈ 0.61 µM) | 0.22 (≈ 0.639 µM) | < 0.1 | 0.26 (≈ 0.755 µM) | 0.25 (≈ 0.726 µM) | 0.14 (≈ 0.407 µM) | – | – | – | – | – | – | – | – | – | – | – | – | – | – | –
4 | CO/C=C(/C(=O)OC)c1ccccc1Oc1cc(Oc2ccccc2C#N)ncn1 [Azoxystrobin] | – | – | – | – | – | – | – | – | – | A > 53 a | >53 | A > 53 a | A > 53 a | A > 53 a | A > 53 a | – | – | – | – | – | Control efficiency reduced per year (soybean rust [4]): 13.8 % per year; CI50 Average [3, 18]: A > 40 a ^ mg/L; CI50 isolate 01/QTZ [3, 19]: A > 40 a mg/L; CI50 isolate 02/ONX [3, 20]: A > 40 a mg/L; CI50 isolate 03/HZT [3, 21]: A > 40 a mg/L; CI50 isolate 04/GUA [3, 22]: A > 40 a mg/L; CI50 isolate 05/CD ([3]; spore germination): A > 40 a mg/L; Control of soybean rust in the 2013/14 (last) crop (soybean rust [5]): 16%
5 | CCCC1COC(Cn2cncn2)(c2ccc(Cl)cc2Cl)O1 (stereo not drawn) [Propiconazole] | 0.34 (≈ 0.993 µM) | 0.32 (≈ 0.935 µM) | 0.51 (≈ 1.49 µM) | 0.3 (≈ 0.877 µM) | 0.3 (≈ 0.877 µM) | 0.3 (≈ 0.877 µM) | – | – | – | – | – | – | – | – | – | – | – | – | – | – | IC50 (Hunger & Brown) [6]: 0.04 µg/mL (≈ 0.117 µM)
6 | CC(C)(C)C(O)(CCc1ccc(Cl)cc1)Cn1cncn1 (stereo not drawn) [Tebuconazole] | 0.57 (≈ 1.85 µM) | 0.66 (≈ 2.14 µM) | 0.49 (≈ 1.59 µM) | 0.65 (≈ 2.11 µM) | 0.61 (≈ 1.98 µM) | 0.44 (≈ 1.43 µM) | 32.8 | 95.0 | 64.0 | – | – | – | – | – | – | – | – | – | – | – | Control efficiency reduced per year (soybean rust [4]): 7.2 % per year; Control (%) (soybean rust [2]): 42%; Severity (%) (soybean rust [2]): 49.9%; IC50 (Beard et al) [6]: 0.25 µg/mL (≈ 0.812 µM); IC50 (Hunger & Brown) [6]: 0.19 µg/mL (≈ 0.617 µM)
7 | CO/C=C(/C(=O)OC)c1ccccc1COc1cccc(C(F)(F)F)n1 [Picoxystrobin] | – | – | – | – | – | – | – | – | – | A > 53a | >53 | A > 53 a | A > 53 a | A > 53 a | A > 53 a | – | – | – | – | – | CI50 Average [3, 18]: >40 a mg/L; CI50 isolate 01/QTZ [3, 19]: A > 40 a mg/L; CI50 isolate 02/ONX [3, 20]: A > 40 a mg/L; CI50 isolate 03/HZT [3, 21]: A > 40 a mg/L; CI50 isolate 04/GUA [3, 22]: A > 40 a mg/L; CI50 isolate 05/CD ([3]; spore germination): A > 40 a mg/L
8 | Fc1ccc([C@]2(Cn3cncn3)O[C@H]2c2ccccc2Cl)cc1 (racemic) [Epoxiconazole] | 0.33 (≈ 1 µM) | 0.28 (≈ 0.849 µM) | 0.28 (≈ 0.849 µM) | 0.4 (≈ 1.21 µM) | 0.32 (≈ 0.97 µM) | 0.4 (≈ 1.21 µM) | 50.0 | 80.0 | 40.0 | – | – | – | – | – | – | – | – | – | – | – | IC50 (Beard et al) [6]: 0.19 µg/mL (≈ 0.576 µM)
9 | CO/N=C(/C(=O)OC)c1ccccc1COc1ccccc1C [Kresoxim methyl] | – | – | – | – | – | – | – | – | – | A > 53 a | >53 | A > 53 a | A > 53 a | A > 53 a | A > 53 a | > 40 | > 40 | > 40 | > 40 | > 40 | –
10 | COC(=O)N(OC)c1ccccc1COc1ccn(-c2ccc(Cl)cc2)n1 [Pyraclostrobin] | – | – | – | – | – | – | – | – | – | D 1.0 b | – | B 1.13 b | C 1.04 b | E 0.77 b | A 1.37 b | 0.8 (≈ 2.06 µM) | 0.75 (≈ 1.93 µM) | 0.85 (≈ 2.19 µM) | 0.78 (≈ 2.01 µM) | 0.58 (≈ 1.5 µM) | IC50 ([3]; read-out: CI50 isolate 05/CD): 1.03 µg/mL (≈ 2.66 µM); IC50 ([3]; taken from Table 4 as sensitivity reference, read-out: CI50 standard of sensitivity): 0.75 µg/mL (≈ 1.93 µM)
